Laboratory results taken from ChEMBL document CHEMBL4265996, “Genetically-encoded fragment-based discovery of glycopeptide ligands for DC-SIGN” (Bioorg Med Chem, 2018).
The source made the active and inactive calls. The rule behind the calls is not given here. Where a SMILES comes first, the peptide text is derived from it. The star is where a group is joined. X1 = O=C(/C=N/O[C@H]1O[C@H](CO)[C@@H](O)[C@H](O)[C@@H]1O)*; X2 = O=C(/C=N/O[C@H]1O[C@H](CO)[C@H](O)[C@H](O)[C@H]1O)*

Legend:
CD209 antigen [1] = target: T1, CD209 antigen (Homo sapiens, UniProt Q9NNX6); experiment: Inhibition of binding of trimannoside containing horseradish peroxidase to DC-SIGN carbohydrate binding domain (unknown origin) expressed in Escherichia coli preincubated for 1 hr followed by TMB substrate addition measured after 30 mins by ELISA
T1 sequence (Q9NNX6 whole entry): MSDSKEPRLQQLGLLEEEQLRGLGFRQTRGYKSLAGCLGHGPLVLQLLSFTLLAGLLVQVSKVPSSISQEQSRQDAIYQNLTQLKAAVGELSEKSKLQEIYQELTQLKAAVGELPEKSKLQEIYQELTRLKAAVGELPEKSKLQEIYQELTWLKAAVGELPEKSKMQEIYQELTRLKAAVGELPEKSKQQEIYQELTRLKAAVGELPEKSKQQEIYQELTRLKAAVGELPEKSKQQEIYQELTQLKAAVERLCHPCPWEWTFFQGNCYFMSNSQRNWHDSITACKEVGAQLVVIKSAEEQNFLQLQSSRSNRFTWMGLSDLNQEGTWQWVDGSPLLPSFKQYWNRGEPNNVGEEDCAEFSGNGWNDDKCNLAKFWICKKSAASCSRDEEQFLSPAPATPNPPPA

[2] = target: T2, CD209 antigen (Homo sapiens) (UniProt Q9NNX6); experiment: Binding affinity to recombinant human DC-SIGN expressed in human Raji cells preincubated with Cy5 conjugated compound for 2 hrs followed by washing and measured by flow cytometric analysis; assay type: cell-based
T2 sequence (whole entry): T1 sequence (Q9NNX6 whole entry)

CD209 antigen [3] = target: T1, CD209 antigen; experiment: Binding affinity to DC-SIGN extracellular domain (unknown origin) expressed in Escherichia coli after 1 hr by ELISA
[4] = target: C-type lectin domain family 4 member K (Homo sapiens) (UniProt Q9UJ71); experiment: Binding affinity to human langerin expressed in human Raji cells preincubated with Cy5 conjugated compound for 2 hrs followed by washing and measured by flow cytometric analysis; assay type: cell-based
Chain of C-type lectin domain family 4 member K (Homo sapiens) (Q9UJ71 whole entry, the tested form may be a part): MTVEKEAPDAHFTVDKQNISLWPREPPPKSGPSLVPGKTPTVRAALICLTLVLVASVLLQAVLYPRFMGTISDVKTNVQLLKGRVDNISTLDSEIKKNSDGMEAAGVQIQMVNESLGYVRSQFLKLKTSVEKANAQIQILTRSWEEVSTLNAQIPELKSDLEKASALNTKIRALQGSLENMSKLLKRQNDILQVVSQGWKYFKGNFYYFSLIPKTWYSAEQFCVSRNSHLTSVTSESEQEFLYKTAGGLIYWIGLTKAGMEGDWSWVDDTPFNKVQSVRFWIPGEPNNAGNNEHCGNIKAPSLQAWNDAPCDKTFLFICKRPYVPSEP

[5] = target: T2, CD209 antigen (Homo sapiens); experiment: Binding affinity to recombinant human DC-SIGN expressed in rat-6 fibroblast preincubated with Cy5 conjugated compound for 2 hrs followed by washing and measured by flow cytometric analysis
[6] = Binding affinity to ConA […] after 1 hr by ELISA

IC50 (CD209 antigen [1]) | EC50 (CD209 antigen [3]) | EC50 [6] | Compound | other results
6400 µM |  |  | OC[C@H]1O[C@H](O)[C@@H](O)[C@@H](O)[C@@H]1O | 
1400 µM |  |  | [N-]=[N+]=NCCCCCCO[C@H]1O[C@H](CO[C@H]2O[C@H](CO)[C@@H](O)[C@H](O)[C@@H]2O)[C@@H](O)[C@H](O[C@H]2O[C@H](CO)[C@@H](O)[C@H](O)[C@@H]2O)[C@@H]1O | 
 | 4 ×10⁸ PFU | > 1 ×10¹¹ PFU | CSCC[C@H](NC(=O)/C=N/O[C@H]1O[C@H](CO)[C@@H](O)[C@H](O)[C@@H]1O)C(=O)N1CCC[C@H]1C(=O)N[C@@H](C)C(=O)N[C@@H](Cc1c[nH]c2ccccc12)C(=O)N[C@@H](CCCNC(=N)N)C(=O)N[C@@H](Cc1cnc[nH]1)C(=O)N[C@@H](C)C(N)=O (X1-MPAWRHA-NH2) | Activity [2]: Active; Activity [4]: inactive; Activity [5]: Active
 | 2.6 ×10¹¹ PFU | > 1 ×10¹¹ PFU | CC(C)[C@H](NC(=O)/C=N/O[C@H]1O[C@H](CO)[C@@H](O)[C@H](O)[C@@H]1O)C(=O)N[C@@H](CCC(=O)O)C(=O)N[C@@H](CCCCN)C(=O)N[C@@H](CC(N)=O)C(=O)N[C@@H](CC(=O)O)C(=O)N[C@@H](CCC(N)=O)C(=O)N[C@@H](CCCCN)C(=O)N[C@H](C(=O)N[C@@H](Cc1ccc(O)cc1)C(=O)N[C@@H](Cc1cnc[nH]1)C(=O)N[C@@H](C)C(N)=O)[C@@H](C)O (X1-VEKNDQKTYHA-NH2) | Activity [5]: inactive
 | 3.7 ×10¹⁰ PFU |  | CSCC[C@H](NC(=O)/C=N/O[C@H]1O[C@H](CO)[C@H](O)[C@H](O)[C@H]1O)C(=O)N1CCC[C@H]1C(=O)N[C@@H](C)C(=O)N[C@@H](Cc1c[nH]c2ccccc12)C(=O)N[C@@H](CCCNC(=N)N)C(=O)N[C@@H](Cc1cnc[nH]1)C(=O)N[C@@H](C)C(N)=O (X2-MPAWRHA-NH2) | 
 | 2 ×10¹¹ PFU |  | CC(C)[C@H](NC(=O)/C=N/O[C@H]1O[C@H](CO)[C@H](O)[C@H](O)[C@H]1O)C(=O)N[C@@H](CCC(=O)O)C(=O)N[C@@H](CCCCN)C(=O)N[C@@H](CC(N)=O)C(=O)N[C@@H](CC(=O)O)C(=O)N[C@@H](CCC(N)=O)C(=O)N[C@@H](CCCCN)C(=O)N[C@H](C(=O)N[C@@H](Cc1ccc(O)cc1)C(=O)N[C@@H](Cc1cnc[nH]1)C(=O)N[C@@H](C)C(N)=O)[C@@H](C)O (X2-VEKNDQKTYHA-NH2) | 
 | 2.8 ×10⁹ PFU | > 1 ×10¹¹ PFU | CC[C@H](C)[C@H](NC(=O)[C@H](CO)NC(=O)[C@H](CO)NC(=O)/C=N/O[C@H]1O[C@H](CO)[C@@H](O)[C@H](O)[C@@H]1O)C(=O)N[C@H](C(=O)N[C@@H](Cc1cnc[nH]1)C(=O)N[C@@H](C)C(=O)N1CCC[C@H]1C(=O)N[C@@H](CO)C(N)=O)[C@@H](C)O (stereo in doubt) | 
 |  | 2.9 ×10⁹ PFU | CC(C)C[C@H](NC(=O)[C@H](CC(=O)O)NC(=O)[C@H](Cc1ccc(O)cc1)NC(=O)[C@H](Cc1c[nH]c2ccccc12)NC(=O)/C=N/OCCO[C@H]1O[C@H](CO)[C@@H](O)[C@H](O)[C@@H]1O)C(=O)N[C@@H](Cc1ccc(O)cc1)C(=O)N[C@@H](Cc1cnc[nH]1)C(N)=O (stereo in doubt) | 
450 µM |  |  | CC[C@H](C)[C@H](NC(=O)[C@H](CO)NC(=O)/C=N/O[C@H]1O[C@H](CO)[C@@H](O)[C@H](O)[C@@H]1O)C(=O)N[C@H](C(=O)N[C@@H](Cc1cnc[nH]1)C(=O)N[C@@H](C)C(=O)N1CCC[C@H]1C(=O)N[C@@H](CO)C(N)=O)[C@@H](C)O (stereo in doubt) | 
